Where a SMILES comes first, the peptide text is derived from it. [ ]: non-standard residue; d: D form. The star is where a group is joined. ξ: configuration not given here. Cbz = O=C(OCc1ccccc1)*; ξAze = O=C(O)C1CCN1

One may read the IC50 as the point on the concentration scale where inhibition reaches its midpoint.

In the assay the test system is Calpain. Put plainly: Measurement of calpain inhibiting effect (casein hydrolysis, IC50 by Probit). Type of assay: biochemical, Japanese white rabbit. The settings on record: 30 °C for 30 minutes, pH = 7.5, IC50 by method of Probit. How it is done: Test Example 1 Measurement of Calpain Inhibiting Effect
Calpain was separated from a skeletal muscle of a Japanese white rabbit and partially purified according to the method of Tsuji and Imahori as described in J.Biochem. 90, 233-240 (1981), whereby the calpain for use in a test for investigating the calpain inhibiting effect (i.e., the inhibitory effect on calpain activity) of the aldehyde compounds according to the present invention was prepared.
The calpain inhibiting effect was measured in accordance with the method of Yoshimura et al. as described in J. Biol. Chem. 258, 8883-8889 (1983).
Each assay mixture was prepared by mixing 0.05 ml of a 4% casein solution, 0.05 ml of a 50 mM cysteine solution, 0.05 ml of a calpain solution, 0.025 ml of purified water, 0.025 ml of a 10% dimethyl sulfoxide solution containing each compound shown in Table 15 and 0.25 ml of a 200 mM imidazole hydrochloric acid buffer solution (pH = 7.5).
The thus prepared assay mixture was preincubated at 30 ° C for 3 minutes. The reaction was started by the addition of 0.05 ml of a 50 mM calcium chloride solution to the above mixture. After the incubation at 30 °C for 30 minutes, the reaction was terminated by the addition of 0.5 ml of 5% trichloroacetic acid.
The amount of a trichloroacetic-acid-soluble protein produced by hydrolysis of casein by calpain was measured by the spectrophotometric analysis in accordance with the method of Ross and Schatz as described in Anal. Biochem. 54, 304-306 (1973), and the absorbance (a) of each sample was measured.
The absorbance (b) of a blank sample which was treated similarly without any of the aldehyde compounds of the present invention, dissolved in a 10% dimethyl sulfoxide solution, was measured.
The inhibition of calpain activity was calculated in accordance with the formula [(b-a)/b] X 100, and the amount of each aldehyde compound necessary to inhibit calpain activity by 50% [IC50] was calculated according to the method of Probit.
`O=C[C@H](Cc1ccccc1)NC(=O)C1CCN(C(=O)c2ccc(Cl)c(Cl)c2)CC1` [1-36, 1-(3,4-dichlorobenzoyl)piperidine-4-carboxylic acid-(1S)-(1-formyl-2-phenyl)ethylamide] showed an IC50 of 780 nM. Under `O=C[C@H](Cc1ccccc1)NC(=O)C1CCN(C(=O)c2cccs2)CC1` [1-32, 1-(2-thienylcarbonyl)piperidine-4-carboxylic acid-(1S)-(1-formyl-2-phenyl)ethylamide] stands 2000 nM.

Turning to `CSCC[C@@H](C=O)NC(=O)[C@@H](OC(=O)Nc1cccc2ccccc12)C(C)C` [Compound No. 2-22], the 50% inhibitory concentration (IC50) is 3300 nM. Turning to `Cc1ccc(S(=O)(=O)N2CCC(C(=O)N[C@H](C=O)Cc3ccccc3)CC2)cc1` [1-30, 1-(4-methylphenylsulfonyl)piperidine-4-carboxylic acid-(1S)-(1-formyl-2-phenyl)ethylamide], the half-maximal inhibitory concentration (IC50) came to 1100 nM. `CSCC[C@@H](C=O)NC(=O)C1CCN1C(=O)OCc1ccccc1` (stereo partly drawn) [Compound No. 1-1, (2R,2S)-1-benzyloxycarbonyl-azetidine-2-carboxylic acid-(1 S)-(1-formyl-3-methylthio)-propylamide] (Cbz-[ξAze]-Met-aldehyde) had a 50% inhibitory concentration (IC50) of 6600 nM. For the compound `O=C[C@H](Cc1ccccc1F)NC(=O)C1CCN(C(=O)c2ccc3ccccc3c2)CC1` [Compound No. 1-55, 1-(2-naphthoyl)piperidine-4-carboxylic acid-(1S)-[1-formyl-2-(2-fluorophenyl)]ethylamide], the IC50 was 630 nM. With `O=C[C@H](Cc1ccccc1)NC(=O)C1CCN(C(=O)C(c2ccccc2)c2ccccc2)CC1` [1-38, 1-(diphenylacetyl)piperidine-4-carboxylic acid-(1S)-(1-formyl-2-phenyl)ethylamide], the IC50 was found to be 1900 nM. Compound `O=C[C@H](Cc1ccccc1)NC(=O)C1CCN(C(=O)C2c3ccccc3-c3ccccc32)CC1` [1-39, 1-(9-fluorenylcarbonyl)piperidine-4-carboxylic acid-(1S)-(1-formyl-2-phenyl)ethylamide] yielded an IC50 of 2300 nM.

Compound `CSCC[C@@H](C=O)NC(=O)[C@@H](OC(=O)Nc1ccccc1)C(C)C` [Compound No. 2-21] returned a half-inhibitory concentration (IC50) of 2000 nM. Compound `CC(C)C[C@H](OC(=O)Nc1cccc2ccccc12)C(=O)N[C@H](C=O)CCc1ccccc1` [2-13] gave a half-inhibitory concentration (IC50) of 1230 nM.

Take `CSCC[C@@H](C=O)NC(=O)[C@H](CC(C)C)OC(=O)Nc1cccc2ccccc12` [2-14]: half-maximal inhibition (IC50) required 1900 nM. Regarding `O=C[C@H](Cc1ccccc1)NC(=O)C1CCN(C(=O)/C=C/c2cccc(Cl)c2)CC1` [Compound No. 1-43, 1-(3-chlorocinnamoyl)piperidine-4-carboxylic acid-(1S)-(1-formyl-2-phenyl)ethylamide], the IC50 was determined as 560 nM. Compound `CC(C)C[C@H](OC(=O)Nc1cccc2ccccc12)C(=O)N[C@H](C=O)Cc1ccccc1` [Compound No. 2-20] showed an IC50 of 4400 nM.

On to `O=C[C@H](Cc1ccccc1)NC(=O)C1CCN(C(=O)OCc2ccccc2)CC1` [1-7, 1-benzyloxycarbonylpiperidine-4-carboxylic acid-(1S)-(1-formyl-2-phenyl)ethylamide], for which half-maximal inhibition (IC50) was put at 3000 nM. Under `CSCC[C@@H](C=O)NC(=O)[C@H](CC(C)C)OC(=O)Nc1ccccc1` [Compound No. 2-3] stands 1600 nM. Under `CC(C)C[C@H](OC(=O)Nc1ccccc1)C(=O)N[C@H](C=O)CCSCc1ccccc1F` [Compound No. 2-17] stands 3600 nM; under `O=C[C@H](Cc1ccccc1)NC(=O)C1CCN(C(=O)CCCc2ccccc2)CC1` [1-26, 1-(4-phenylbutyryl)piperidine-4-carboxylic acid-(1S)-(1-formyl-2-phenyl)ethylamide], 890 nM. Compound `O=C[C@H](Cc1ccccc1)NC(=O)C1CCN(C(=O)Nc2ccccc2)CC1` [1-41, 1-(N-phenylcarbamoyl)piperidine-4-carboxylic acid-(1S)-(1-formyl-2-phenyl)ethylamide] showed a half-maximal inhibitory concentration (IC50) of 940 nM.

These data come from EP0520336A2, “Aldehyde derivatives and their use as calpain inhibitors” (FUJIREBIO Inc., priority 1991, dated 1992).
